According to patent US6914045B2, “Glycopeptide antibiotics” (Wyeth Holdings Corporation, priority 2001, dated 2005):
Values after ≈ are worked out from the molar mass of the structure shown.

Legend:
Test in all cases: in vitro antibacterial evaluation, MIC by broth dilution
Format in all cases: cell-based
Enterococcus sp. = conditions: broth dilution, 18 hours at 35° C.
In short: (§1)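 Broth dilution per NCCLS standard M7-A2 in Muller-Hinton II […], with an inoculum of 5×10^5 CFU/mL and antibiotic spanning 64-0.06 μg/mL. The MIC is the lowest concentration that inhibits growth of the organism.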

Staphylococcus sp. = conditions: broth dilution, 18 hours at 35° C.
In short: as §1

Streptococcus sp. = conditions: broth dilution, 18 hours at 35° C.
In short: as §1

Escherichia coli = conditions: 18 hours at 35° C.

## CC(c1ccccc1)C1NC(=O)CNC(=O)C(CO)NC(=O)C(C(O)C2CNC(=N)N2C2OC(CO)C(O)C(O)C2O)NC(=O)C(C(O)C2CNC(=N)N2)NC(=O)C(Cc2ccc(OC3OC(CO)C(OC4OC(COCc5ccc(Oc6ccccc6)cc5)C(O)C(O)C4O)C(O)C3O)cc2)NC1=O (stereo not shown) [Example 236]
Enterococcus sp.
  MIC Enterococcus avium (GC 4558): 2 µg/mL (≈ 1.35 µM)
  MIC Enterococcus faecalis (ATCC 29212): 4 µg/mL (≈ 2.71 µM)
  MIC Enterococcus faecalis (GC 2242): 4 µg/mL (≈ 2.71 µM)
  MIC Enterococcus faecalis (GC 2691): 2 µg/mL (≈ 1.35 µM)
  MIC Enterococcus faecalis (GC 3059): 2 µg/mL (≈ 1.35 µM)
  MIC Enterococcus faecalis (GC 4552): 4 µg/mL (≈ 2.71 µM)
  MIC Enterococcus faecalis (GC 4553): 4 µg/mL (≈ 2.71 µM)
  MIC Enterococcus faecalis (GC 4554): 4 µg/mL (≈ 2.71 µM)
  MIC Enterococcus faecalis (GC 6189): 2 µg/mL (≈ 1.35 µM)
  MIC Enterococcus faecium (GC 2243): 4 µg/mL (≈ 2.71 µM)
  MIC Enterococcus faecium (GC 4556): 4 µg/mL (≈ 2.71 µM)
  MIC Enterococcus faecium (GC 4557): 2 µg/mL (≈ 1.35 µM)
Enterococcus sp.; strain ATCC 29212
  MIC Enterococcus faecalis (ATCC 29212): 4 µg/mL (≈ 2.71 µM)
Enterococcus sp.; strain GC 2243
  MIC Enterococcus faecium (GC 2243): 4 µg/mL (≈ 2.71 µM)
Enterococcus sp.; strain GC 4552
  MIC Enterococcus faecalis (GC 4552): 4 µg/mL (≈ 2.71 µM)
Enterococcus sp.; strain GC 4553
  MIC Enterococcus faecalis (GC 4553): 4 µg/mL (≈ 2.71 µM)
Enterococcus sp.; strain GC 4554
  MIC Enterococcus faecalis (GC 4554): 4 µg/mL (≈ 2.71 µM)
Enterococcus sp.; strain GC 4556
  MIC Enterococcus faecium (GC 4556): 4 µg/mL (≈ 2.71 µM)
Enterococcus sp.; strain GC 4557
  MIC Enterococcus faecium (GC 4557): 2 µg/mL (≈ 1.35 µM)
Enterococcus sp.; strain GC 4558
  MIC Enterococcus avium (GC 4558): 2 µg/mL (≈ 1.35 µM)
Enterococcus sp.; strain GC 6189
  MIC Enterococcus faecalis (GC 6189): 2 µg/mL (≈ 1.35 µM)
Enterococcus sp.; inoculum 5×10^5 CFU/mL, strain GC 2242
  MIC Enterococcus faecalis (GC 2242): 4 µg/mL (≈ 2.71 µM)
Enterococcus sp.; inoculum 5×10^5 CFU/mL, strain GC 2691
  MIC Enterococcus faecalis (GC 2691): 2 µg/mL (≈ 1.35 µM)
Enterococcus sp.; inoculum 5×10^5 CFU/mL, strain GC 3059
  MIC Enterococcus faecalis (GC 3059): 2 µg/mL (≈ 1.35 µM)
Staphylococcus sp.
  MIC Coagulase Negative Staphylococcus (GC 4547): 2 µg/mL (≈ 1.35 µM)
  MIC Coagulase Negative Staphylococcus (GC 4548): 0.5 µg/mL (≈ 0.338 µM)
  MIC Coagulase Negative Staphylococcus (GC 4549): 0.5 µg/mL (≈ 0.338 µM)
  MIC Coagulase Negative Staphylococcus (GC 4551): 2 µg/mL (≈ 1.35 µM)
  MIC Coagulase Negative Staphylococcus (GC 6257): 1 µg/mL (≈ 0.677 µM)
  MIC Staphylococcus aureus (ATCC 29213): 2 µg/mL (≈ 1.35 µM)
  MIC Staphylococcus aureus (GC 1131): 2 µg/mL (≈ 1.35 µM)
  MIC Staphylococcus aureus (GC 3051): 2 µg/mL (≈ 1.35 µM)
  MIC Staphylococcus aureus (GC 3053): 2 µg/mL (≈ 1.35 µM)
  MIC Staphylococcus aureus (GC 4541): 2 µg/mL (≈ 1.35 µM)
  MIC Staphylococcus aureus (GC 4542): 4 µg/mL (≈ 2.71 µM)
  MIC Staphylococcus aureus (GC 4544): 2 µg/mL (≈ 1.35 µM)
  MIC Staphylococcus aureus (GC 4545): 2 µg/mL (≈ 1.35 µM)
  MIC Staphylococcus aureus-SMITH (GC 4543): 2 µg/mL (≈ 1.35 µM)
  MIC Staphylococcus haemolyticus (GC 4546): 2 µg/mL (≈ 1.35 µM)
Staphylococcus sp.; strain ATCC 29213
  MIC Staphylococcus aureus (ATCC 29213): 2 µg/mL (≈ 1.35 µM)
Staphylococcus sp.; strain GC 1131
  MIC Staphylococcus aureus (GC 1131): 2 µg/mL (≈ 1.35 µM)
Staphylococcus sp.; strain GC 3051
  MIC Staphylococcus aureus (GC 3051): 2 µg/mL (≈ 1.35 µM)
Staphylococcus sp.; strain GC 3053
  MIC Staphylococcus aureus (GC 3053): 2 µg/mL (≈ 1.35 µM)
Staphylococcus sp.; strain GC 4541
  MIC Staphylococcus aureus (GC 4541): 2 µg/mL (≈ 1.35 µM)
Staphylococcus sp.; strain GC 4542
  MIC Staphylococcus aureus (GC 4542): 4 µg/mL (≈ 2.71 µM)
Staphylococcus sp.; strain GC 4543
  MIC Staphylococcus aureus-SMITH (GC 4543): 2 µg/mL (≈ 1.35 µM)
Staphylococcus sp.; strain GC 4544
  MIC Staphylococcus aureus (GC 4544): 2 µg/mL (≈ 1.35 µM)
Staphylococcus sp.; strain GC 4545
  MIC Staphylococcus aureus (GC 4545): 2 µg/mL (≈ 1.35 µM)
Staphylococcus sp.; strain GC 4546
  MIC Staphylococcus haemolyticus (GC 4546): 2 µg/mL (≈ 1.35 µM)
Staphylococcus sp.; strain GC 4547
  MIC Coagulase Negative Staphylococcus (GC 4547): 2 µg/mL (≈ 1.35 µM)
Staphylococcus sp.; strain GC 4548
  MIC Coagulase Negative Staphylococcus (GC 4548): 0.5 µg/mL (≈ 0.338 µM)
Staphylococcus sp.; strain GC 4549
  MIC Coagulase Negative Staphylococcus (GC 4549): 0.5 µg/mL (≈ 0.338 µM)
Staphylococcus sp.; strain GC 4551
  MIC Coagulase Negative Staphylococcus (GC 4551): 2 µg/mL (≈ 1.35 µM)
Staphylococcus sp.; strain GC 6257
  MIC Coagulase Negative Staphylococcus (GC 6257): 1 µg/mL (≈ 0.677 µM)
Streptococcus sp.
  MIC Streptococcus agalactiae (GC 4564): 0.12 µg/mL (≈ 0.0812 µM)
  MIC Streptococcus pneumoniae (ATCC 6301): <0.06 µg/mL
  MIC Streptococcus pneumoniae (GC 1894): <0.06 µg/mL
  MIC Streptococcus pneumoniae (GC 4565): <0.06 µg/mL
  MIC Streptococcus pyogenes (GC 4563): <0.06 µg/mL
Streptococcus sp.; inoculum 5×10^5 CFU/mL, strain ATCC 6301
  MIC Streptococcus pneumoniae (ATCC 6301): <0.06 µg/mL
Streptococcus sp.; inoculum 5×10^5 CFU/mL, strain GC 1894
  MIC Streptococcus pneumoniae (GC 1894): <0.06 µg/mL
Streptococcus sp.; inoculum 5×10^5 CFU/mL, strain GC 4563
  MIC Streptococcus pyogenes (GC 4563): <0.06 µg/mL
Streptococcus sp.; inoculum 5×10^5 CFU/mL, strain GC 4564
  MIC Streptococcus agalactiae (GC 4564): 0.12 µg/mL (≈ 0.0812 µM)
Streptococcus sp.; inoculum 5×10^5 CFU/mL, strain GC 4565
  MIC Streptococcus pneumoniae (GC 4565): <0.06 µg/mL
Escherichia coli
  MIC Escherichia coli (ATCC 25922): >64 µg/mL
  MIC Escherichia coli (GC 4559): >64 µg/mL
  MIC Escherichia coli (GC 4560): 1 µg/mL (≈ 0.677 µM)
